Columns and labels:
[1] = tested on: recombinant erythrose reductase type III; assay: Substrate specificity of purified recombinant erythrose reductase type III, NADPH consumption at 340 nm; format: biochemical, Trichosporonoides megachiliensis; conditions: rate with D-erythrose = 100%; 12 mM substrate, 0.2 mM NADPH, 50 mM phosphate buffer pH 6.5, 37° C., 5 minutes
Description: (§1) The substrate specificities of the purified recombinant erythrose reductases type III, type II, and type I were compared with that of the erythrose reductase heretofore reported (natural type: H. Ishizuka et al., Biosci. Biotech. Biochem., 56(6), 941-945, 1992).
(§2) In the presence of 50 mM of a phosphate buffer at pH 6.5, 12 mM of a substrate, and 0.2 mM of NADPH, 20 μL of an enzyme was acted (1 mL in total), and a change with time in optical absorbance at 340 nm was measured at 37° C. for 5 minutes.
(§3) With the reaction rate at which erythrose is reduced as a substrate as being 100%, relative values (%) of reaction rates for reducing various ketoses and aldoses are shown in Table 1.

[2] = tested on: recombinant erythrose reductase type II; assay: Substrate specificity of purified recombinant erythrose reductase type II, NADPH consumption at 340 nm; format: biochemical, Trichosporonoides megachiliensis; conditions: rate with D-erythrose = 100%; 12 mM substrate, 0.2 mM NADPH, 50 mM phosphate buffer pH 6.5, 37° C., 5 minutes
Description: as §1, §2, §3

[3] = tested on: recombinant erythrose reductase type I; assay: Substrate specificity of purified recombinant erythrose reductase type I, NADPH consumption at 340 nm; format: biochemical, Trichosporonoides megachiliensis; conditions: rate with D-erythrose = 100%; 12 mM substrate, 0.2 mM NADPH, 50 mM phosphate buffer pH 6.5, 37° C., 5 minutes
Description: as §1, §2, §3

[4] = tested on: natural type erythrose reductase type III; conditions: rate with D-erythrose = 100%; 12 mM substrate, 0.2 mM NADPH, 50 mM phosphate buffer pH 6.5, 37° C.; reported natural type (Ishizuka et al. 1992); cited from earlier work
[5] = IEF-PAGE (isoelectric focusing) of purified recombinant erythrose reductases; format: physicochemical; conditions: Phast Gel IEF pH 4-6.5, from mobility of band
Description: On the purified recombinant erythrose reductases, IEF-PAGE was carried out with a fully automatic electrophoresis system called Phast System (produced by Amersham Pharmacia Biotech), using a gel (trade name: Phast Gel (IEF pH 4-6.5), manufacturer: Amersham Pharmacia Biotech).
Electrophoresis was conducted using a pH gradient gel, and the separated proteins were stained.
From FIG. 9, the isoelectric point of each enzyme could be confirmed from the mobility of a band.

O=C[C@@H](O)[C@H](O)[C@H](O)CO [D-arabinose]
Relative value (%) of reaction rate, Recombinant type Type III [1]: 0.0%
Relative value (%) of reaction rate, Recombinant type Type II [2]: 0.0%
Relative value (%) of reaction rate, Recombinant type Type I [3]: 0.9%
Relative value (%) of reaction rate, Normal type Type III [4]: 0.0%

O=C[C@H](O)[C@H](O)CO [D-erythrose]
Relative value (%) of reaction rate, Recombinant type Type III [1]: 100.0%
Relative value (%) of reaction rate, Recombinant type Type II [2]: 100.0%
Relative value (%) of reaction rate, Recombinant type Type I [3]: 100.0%
Relative value (%) of reaction rate, Normal type Type III [4]: 100.0%

O=C(CO)[C@@H](O)[C@H](O)[C@H](O)CO [D-fructose]
Relative value (%) of reaction rate, Recombinant type Type III [1]: 0.0%
Relative value (%) of reaction rate, Recombinant type Type II [2]: 0.0%
Relative value (%) of reaction rate, Recombinant type Type I [3]: 0.0%
Relative value (%) of reaction rate, Normal type Type III [4]: 0.0%

O=C[C@H](O)[C@@H](O)[C@@H](O)[C@H](O)CO [D-galactose]
Relative value (%) of reaction rate, Recombinant type Type III [1]: 0.0%
Relative value (%) of reaction rate, Recombinant type Type II [2]: 0.0%
Relative value (%) of reaction rate, Recombinant type Type I [3]: 0.0%
Relative value (%) of reaction rate, Normal type Type III [4]: 0.0%

O=C[C@H](O)[C@@H](O)[C@H](O)[C@H](O)CO [D-glucose]
Relative value (%) of reaction rate, Recombinant type Type III [1]: 0.0%
Relative value (%) of reaction rate, Recombinant type Type II [2]: 0.0%
Relative value (%) of reaction rate, Recombinant type Type I [3]: 0.0%
Relative value (%) of reaction rate, Normal type Type III [4]: 0.0%

O=C[C@H](O)[C@@H](O)[C@H](O)[C@H](O)C(=O)O [D-glucuronate]
Relative value (%) of reaction rate, Recombinant type Type III [1]: 0.8%
Relative value (%) of reaction rate, Recombinant type Type II [2]: 0.0%
Relative value (%) of reaction rate, Recombinant type Type I [3]: 0.7%
Relative value (%) of reaction rate, Normal type Type III [4]: 6.6%

O=C[C@H](O)CO [D-glyceraldehyde]
Relative value (%) of reaction rate, Recombinant type Type III [1]: 98.2%
Relative value (%) of reaction rate, Recombinant type Type II [2]: 107.8%
Relative value (%) of reaction rate, Recombinant type Type I [3]: 102.0%
Relative value (%) of reaction rate, Normal type Type III [4]: 66.0%

O=C[C@@H](O)[C@@H](O)[C@H](O)[C@H](O)CO [D-mannose]
Relative value (%) of reaction rate, Recombinant type Type III [1]: 0.0%
Relative value (%) of reaction rate, Recombinant type Type II [2]: 0.0%
Relative value (%) of reaction rate, Recombinant type Type I [3]: 0.0%
Relative value (%) of reaction rate, Normal type Type III [4]: 0.0%

O=C[C@H](O)[C@H](O)[C@H](O)CO [D-ribose]
Relative value (%) of reaction rate, Recombinant type Type III [1]: 2.3%
Relative value (%) of reaction rate, Recombinant type Type II [2]: 0.7%
Relative value (%) of reaction rate, Recombinant type Type I [3]: 1.0%
Relative value (%) of reaction rate, Normal type Type III [4]: 1.2%

O=C[C@H](O)[C@@H](O)[C@H](O)CO [D-xylose]
Relative value (%) of reaction rate, Recombinant type Type III [1]: 4.5%
Relative value (%) of reaction rate, Recombinant type Type II [2]: 2.4%
Relative value (%) of reaction rate, Recombinant type Type I [3]: 3.2%
Relative value (%) of reaction rate, Normal type Type III [4]: 1.2%

O=C(CO)[C@@H](O)[C@H](O)CO [D-xylulose]
Relative value (%) of reaction rate, Recombinant type Type III [1]: 7.8%
Relative value (%) of reaction rate, Recombinant type Type II [2]: 3.5%
Relative value (%) of reaction rate, Recombinant type Type I [3]: 7.5%
Relative value (%) of reaction rate, Normal type Type III [4]: 0.0%

O=C(CO)[C@@H](O)CO [L-erythrulose]
Relative value (%) of reaction rate, Normal type Type III [4]: 38.0%

O=C(CO)[C@@H](O)[C@H](O)[C@@H](O)CO [L-sorbose]
Relative value (%) of reaction rate, Recombinant type Type III [1]: 0.0%
Relative value (%) of reaction rate, Recombinant type Type II [2]: 0.0%
Relative value (%) of reaction rate, Recombinant type Type I [3]: 0.0%
Relative value (%) of reaction rate, Normal type Type III [4]: 0.0%

OC[C@H]1O[C@H](O[C@H]2O[C@H](CO)[C@@H](O)[C@H](O)[C@H]2O)[C@H](O)[C@@H](O)[C@@H]1O [Trehalose]
Relative value (%) of reaction rate, Recombinant type Type III [1]: 0.0%
Relative value (%) of reaction rate, Recombinant type Type II [2]: 0.0%
Relative value (%) of reaction rate, Recombinant type Type I [3]: 0.0%
Relative value (%) of reaction rate, Normal type Type III [4]: 0.0%

O=Cc1ccc([N+](=O)[O-])cc1 [p-nitrobenzaldehyde]
Relative value (%) of reaction rate, Recombinant type Type III [1]: 66.3%
Relative value (%) of reaction rate, Recombinant type Type II [2]: 8.8%
Relative value (%) of reaction rate, Recombinant type Type I [3]: 11.5%
Relative value (%) of reaction rate, Normal type Type III [4]: 46.0%

B1: purified recombinant erythrose reductase type I: recombinant enzyme of SEQ. ID No. 6 expressed in E. coli, histidine Tag cleaved (protein)
chain: MSYNKNIPLNDGNSIPALGYGTWQAEPGQVGEGVKLAVKAGYRHLDLAKVYQNQTEIGQALKELFDEGVVKREDLFITSKLWNNRHAPEHVEPALDETLKELGLSYLDLYLIHWPVAFKFTTPDELLPADPTNKDLAYIDDSVKLSDTWKAVVALKKTGKTKSVGVSNFSTRLVDLVEEASGERPAVNQIEAHPLLQQDELVAHHKSKNIVITAYSPLGNNVAGKPPLTENPGIVDAAKRLNHTPAAVLIAWGIQRGYSVLVKSVTPSRIKSNFEQITLSDEEFQRVTNLIKEYGESRNNVPFNYKPSWSIDVFGTQYEAKATHKINA
isoelectric point (pI) [5]: 4.7

B2: purified recombinant erythrose reductase type II: recombinant enzyme of SEQ. ID No. 4 expressed in E. coli, histidine Tag cleaved (protein)
chain: MSYKQYIPLNDGNKIPALGFGTWQAEPGQVGASVKNAVKAGYRHLDLAKVYQNQSEIGVALQELFDQGIVKREDLFITSKVWNNRHAPEHVEPALDETLKELGLSYLDLYLIHWPVAFKFTTPQELFPTEPDNKELAAIDDSIKLVDTWKAVVALKKTGKTKSVGVSNFTTDLVDLVEKASGERPAVNQIEAHPLLQQDELVAHHKSKNIVITAYSPLGNNVSGKPPLTQNPGIEATAKRLNHTPAAVLLAWGIQRGYSVLVKSVTPSRIESNYDQITLSPEEFQKVTDLIKEYGESRNNIPLNYKPSWPISVFGTSDEAKATHKINTNL
isoelectric point (pI) [5]: 5.3

B3: purified recombinant erythrose reductase type III: recombinant enzyme of SEQ. ID No. 2 expressed in E. coli, histidine Tag cleaved (protein)
chain: B2 chain
isoelectric point (pI) [5]: 5.8

Reference: patent US6960458B2, “Erythrose reductase, its cDNA and cell which the cDNA express” (Director of National Food Research Institute, Ministry of …, priority 2001, dated 2005)
